Measured values as given in patent US7902199B2, “Heterocyclic substituted piperazine compounds with CXCR3 antagonist activity” (Schering Corporation, priority 2006, dated 2011).

target: T1, Human CXCR3 (N-delta 4) (Homo sapiens, UniProt P49682); experiment: Human CXCR3 (N-delta 4) Scintillation Proximity Assay (SPA), [125I] IP-10 binding; settings: rating; 25 pM [125I] IP-10, Ba/F3-hCXCR3 (N-delta 4) membranes, 3 hr room temperature
T1 construct: CD8 leader (N); Flag; expressed in transfected cells; membrane preparation
T1 sequence (P49682 5-368 limits assumed): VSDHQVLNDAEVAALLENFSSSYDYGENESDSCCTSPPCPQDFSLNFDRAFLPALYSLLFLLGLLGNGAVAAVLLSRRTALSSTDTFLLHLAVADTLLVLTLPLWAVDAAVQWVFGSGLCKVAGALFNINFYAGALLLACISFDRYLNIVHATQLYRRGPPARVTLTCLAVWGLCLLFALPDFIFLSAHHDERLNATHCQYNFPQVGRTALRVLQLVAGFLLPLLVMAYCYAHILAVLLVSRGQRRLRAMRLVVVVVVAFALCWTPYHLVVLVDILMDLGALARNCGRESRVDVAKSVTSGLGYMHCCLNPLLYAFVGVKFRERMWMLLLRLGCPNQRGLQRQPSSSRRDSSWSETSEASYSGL
Excerpt: The inventive compounds can readily be evaluated to determine activity at The CXCR3 receptors by known methods, such as, for example, Development of Human CXCR3 (N-delta 4) Binding Assay.
Cloning and Expression of Human CXCR3 (N-delta 4):
The DNA encoding human CXCR3 was cloned by PCR using human genomic DNA (Promega, Madison, Wis.) as a template. The PCR primers were designed based on the published sequence of human orphan receptor GPR9 (1) with incorporated restriction sites, a Kozak consensus sequence, CD8 leader and Flag tag. The PCR product was subcloned into the mammalian expression vector pME18neo, a derivative of the SR-alpha expression vector (designated as pME18Sneo-hCXCR3 (N-delta 4).
IL-3-dependent mouse pro-B cells Ba/F3 were transfected by electroporation in 0.4 ml Dulbecco's PBS containing 4×10^6 cells with 20 μg of pME18Sneo-hCXCR3 (N-delta 4) plasmid DNA. Cells were pulsed at 400 Volts, 100 OHMs, 960 μFd. The transfected cells were under selection with 1 mg/ml G418 (Life Technologies, Gaithersburg, Md.). G418-resistant Ba/F3 clones were screened for CXCR3 expression by specific binding of [^125I] IP-10 (NEN Life Science Products, Boston, Mass.).
Preparation of Ba/F3-hCXCR3 (N-delta 4) Membranes
Ba/F3 cells expressing human CXCR3 (N-delta 4) were pelleted and resuspended in the lysis buffer containing 10 mM HEPES, pH 7.5 and Complete® protease inhibitors (1 tablet per 100 ml) (Boehringer Mannheim, Indianapolis, Ind.) at a cell density of 20×10^6 cells per ml. After 5 minutes incubation on ice, cells were transferred to 4639 cell disruption bomb (Parr Instrument, Moline, Ill.) and applied with 1,500 psi of nitrogen for 30 minutes on ice. Large cellular debris was removed by centrifugation at 1,000×g. Cell membrane in the supernatant was sedimented at 100,000×g. The membrane was resuspended in the lysis buffer supplemented with 10% sucrose and stored at −80° C. Total protein concentration of the membrane was determined by BCA method from Pierce (Rockford, Ill.).
Human CXCR3 (N-delta 4) Scintillation Proximity Assay (SPA)
For each assay point, 2 μg of membrane was preincubated for 1 hr with 300 μg wheat germ agglutinin (WGA) coated SPA beads (Amersham, Arlington Heights, Ill.) in the binding buffer (50 mM HEPES, 1 mM CaCl2, 5 mM MgCl2, 125 mM NaCl, 0.002% NaN3, 1.0% BSA) at room temperature. The beads were spun down, washed once, resuspended in the binding buffer and transferred to a 96-well Isoplate (Wallac, Gaithersburg, Md.). 25 pM of [^125I] IP-10 with tested compounds in a series of titration were added to start the reaction. After 3 hr reaction at room temperature, the amount of [^125I] IP-10 bound to the SPA beads was determined with a Wallac 1450 Microbeta counter.
The Ki values for the various example compounds of the present invention are given in the afore-mentioned Table 1. From these values, it would be apparent to the skilled artisan that the compounds of the invention have excellent utility CXCR3 antagonists.

| SMILES | Ki [µM] |
| --- | --- |
| CC[C@H]1CN(c2ccc(C(=O)NC3CC3)nc2C)[C@H](C)CN1C1CCN(C(=O)c2ccc(Cl)c(F)c2)CC1 [Compound 9] | < 0.025 |
| CC[C@H]1CN(c2ccc(C(N)=O)nc2C)CCN1C1CCN(C(=O)c2ccc(Cl)cc2)CC1 [Compound 10] | < 0.025 |
| CC[C@H]1CN(c2ccc(C(=O)NC3CC3)nc2C(F)(F)F)[C@H](C)CN1C1CCN(C(=O)c2ccc(Cl)cc2)CC1 [Compound 11] | 0.025 to 0.1 |
| CC[C@H]1CN(c2cnc(C#N)cc2C)CCN1C1CCN(C(=O)c2ccc(Cl)cc2)CC1 [Compound 12] | > 0.1 |
| CC[C@H]1CN(c2ccc(CO)nc2C)CCN1C1CCN(C(=O)c2ccc(Cl)cc2)CC1 [Compound 13] | > 0.1 |
| CC[C@H]1CN(c2cnc(C(N)=O)cc2C)CCN1C1CCN(C(=O)c2ccc(Cl)cc2)CC1 [Compound 14] | > 0.1 |

Now from value to compound:

| Ki [µM] | SMILES |
| --- | --- |
| < 0.025 | CCNC(=O)c1ccc(N2CCN(C3CCN(Cc4ccc(Cl)cc4)CC3)[C@@H](CC)C2)c(C)n1 [Compound 1] |
| < 0.025 | CC[C@H]1CN(c2ccc(C(=O)NC3CC3)nc2C)CCN1C1CCN(Cc2ccc(OC(F)(F)F)cc2)CC1 [Compound 2] |
| < 0.025 | CC[C@H]1CN(c2ccc(C(N)=O)nc2C)CCN1C1CCN(Cc2ccc(Cl)cc2)CC1 [Compound 3] |
| < 0.025 | CC[C@H]1CN(c2ccc(C(N)=O)nc2C)CCN1C1CCN(Cc2ccc(OC(F)(F)F)cc2)CC1 [Compound 4] |
| < 0.025 | CC[C@H]1CN(c2ccc(C(=O)NC3CC3)nc2C)CCN1C1CCN(C(=O)c2ccc(Cl)c(F)c2)CC1 [Compound 5] |
| < 0.025 | CC[C@H]1CN(c2ccc(C(=O)NC3CC3)nc2C)CCN1C1CCN(C(=O)c2ccc(Cl)cc2)CC1 [Compound 6] |
| < 0.025 | CC[C@H]1CN(c2ccc(C(=O)NC3CC3)nc2Cl)[C@H](C)CN1C1CCN(C(=O)c2ccc(Cl)cc2)CC1 [Compound 7] |
| < 0.025 | CC[C@H]1CN(c2ccc(C(=O)NC3CC3)nc2C)CCN1C1CCN(C(=O)c2ccc(F)c(F)c2)CC1 [Compound 8] |
